Data from patent US4085134A, “Amino-phosphonic-sulfonic acids” (Petrolite Corporation, priority 1974, dated 1978).
Counter-ions that a name gives are not always drawn.

Legend:
[1] = Calcium Scale Inhibition Test; settings: 180° F, samples at 2 and 4 hour periods
Experimental: Calcium Scale Inhibition Test
The procedure utilized to determine the effectiveness of scale inhibitors in regard to calcium scale is as follows:
Several 50 ml. samples of a 0.04 sodium bicarbonate solution are placed in 100 ml. bottles. To these solutions is added the inhibitor in various known concentrations. 50 ml. samples of a 0.02 M CaCl2 solution are then added.
A total hardness determination is then made on the 50-50 mixture utilizing the well known Schwarzenbach titration. The samples are placed in a water bath and heated at 180° F. 10 ml. samples are taken from each bottle at 2 and 4 hour periods. These samples are filtered through millipore filters and the total hardness of the filtrates are determined by titration.

[2] = powerful sequesterants; background statement; cited from earlier work

O=P(O)(O)CN(CCCS(=O)(=O)O)CCN(CCCS(=O)(=O)O)CP(=O)(O)O [Example 11]
% Inhibition (calcium scale inhibition) ([1]; 50 ppm): 95% | % Inhibition (calcium scale inhibition) ([1]; 100 ppm): 100%

O=P(O)(O)CN(CCCS(=O)(=O)O)CCN(CCN(CP(=O)(O)O)CP(=O)(O)O)CP(=O)(O)O [Example 14]
% Inhibition (calcium scale inhibition) ([1]; 10 ppm): 66% | % Inhibition (calcium scale inhibition) ([1]; 100 ppm): 100%

O=C(O)CN(CCN(CC(=O)O)CC(=O)O)CC(=O)O [ethylenediamine tetracetic acid salts, ethylenediamine tetracetic acid]
threshold activities [2]: no threshold activities

O=P(O)(O)CN(CCCS(=O)(=O)O)CCN(CCN(CCCS(=O)(=O)O)CP(=O)(O)O)CP(=O)(O)O [Example 15]
% Inhibition (calcium scale inhibition) ([1]; 10 ppm): 42% | % Inhibition (calcium scale inhibition) ([1]; 50 ppm): 95%

CCCCCCCCN(CCCS(=O)(=O)O)CP(=O)(O)O [Example 4]
% Inhibition (calcium scale inhibition) ([1]; 100 ppm): 24% | % Inhibition (calcium scale inhibition) ([1]; 200 ppm): 60%

O=P(O)(O)CN(CCCS(=O)(=O)O)C1CCCCC1 [Example 1]
% Inhibition (calcium scale inhibition) ([1]; 100 ppm): 86%
